This passage reports EC50 and Emax results from patent US9642831B2, “Substituted chromanes and method of use” (AbbVie S.á.r.l., priority 2014, dated 2017).

The test addresses F508delCFTR (Homo sapiens, UniProt P13569, DEL508-508). Briefly: Cell Surface Expression-Horse Radish Peroxidase (CSE-HRP) assay. Format: cell-based. Also on record: expressed in transfected cells; host or cells: CFBE41o- human lung derived epithelial cell line, doxycycline-inducible. The note with it: CFBE4lo-F508delCFTR-HRP cells; for EC50: 18-24 hours at 33° C., 8-point curve, highest concentration 20 μM, luminescence readout; for Emax: maximum % activity at any tested concentration, normalized to on-plate positive control (3 μM Example 1). The procedure, abridged:
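Following 18-24 h compound exposure at 33° C. Expression was doxycycline-induced beforehand. % activity versus DMSO and a 3 μM corrector control gave maximum activity and EC50 from a variable-Hill sigmoidal fit.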

Chain of F508delCFTR (P13569 with tags, fused parts or gaps DEL508-508): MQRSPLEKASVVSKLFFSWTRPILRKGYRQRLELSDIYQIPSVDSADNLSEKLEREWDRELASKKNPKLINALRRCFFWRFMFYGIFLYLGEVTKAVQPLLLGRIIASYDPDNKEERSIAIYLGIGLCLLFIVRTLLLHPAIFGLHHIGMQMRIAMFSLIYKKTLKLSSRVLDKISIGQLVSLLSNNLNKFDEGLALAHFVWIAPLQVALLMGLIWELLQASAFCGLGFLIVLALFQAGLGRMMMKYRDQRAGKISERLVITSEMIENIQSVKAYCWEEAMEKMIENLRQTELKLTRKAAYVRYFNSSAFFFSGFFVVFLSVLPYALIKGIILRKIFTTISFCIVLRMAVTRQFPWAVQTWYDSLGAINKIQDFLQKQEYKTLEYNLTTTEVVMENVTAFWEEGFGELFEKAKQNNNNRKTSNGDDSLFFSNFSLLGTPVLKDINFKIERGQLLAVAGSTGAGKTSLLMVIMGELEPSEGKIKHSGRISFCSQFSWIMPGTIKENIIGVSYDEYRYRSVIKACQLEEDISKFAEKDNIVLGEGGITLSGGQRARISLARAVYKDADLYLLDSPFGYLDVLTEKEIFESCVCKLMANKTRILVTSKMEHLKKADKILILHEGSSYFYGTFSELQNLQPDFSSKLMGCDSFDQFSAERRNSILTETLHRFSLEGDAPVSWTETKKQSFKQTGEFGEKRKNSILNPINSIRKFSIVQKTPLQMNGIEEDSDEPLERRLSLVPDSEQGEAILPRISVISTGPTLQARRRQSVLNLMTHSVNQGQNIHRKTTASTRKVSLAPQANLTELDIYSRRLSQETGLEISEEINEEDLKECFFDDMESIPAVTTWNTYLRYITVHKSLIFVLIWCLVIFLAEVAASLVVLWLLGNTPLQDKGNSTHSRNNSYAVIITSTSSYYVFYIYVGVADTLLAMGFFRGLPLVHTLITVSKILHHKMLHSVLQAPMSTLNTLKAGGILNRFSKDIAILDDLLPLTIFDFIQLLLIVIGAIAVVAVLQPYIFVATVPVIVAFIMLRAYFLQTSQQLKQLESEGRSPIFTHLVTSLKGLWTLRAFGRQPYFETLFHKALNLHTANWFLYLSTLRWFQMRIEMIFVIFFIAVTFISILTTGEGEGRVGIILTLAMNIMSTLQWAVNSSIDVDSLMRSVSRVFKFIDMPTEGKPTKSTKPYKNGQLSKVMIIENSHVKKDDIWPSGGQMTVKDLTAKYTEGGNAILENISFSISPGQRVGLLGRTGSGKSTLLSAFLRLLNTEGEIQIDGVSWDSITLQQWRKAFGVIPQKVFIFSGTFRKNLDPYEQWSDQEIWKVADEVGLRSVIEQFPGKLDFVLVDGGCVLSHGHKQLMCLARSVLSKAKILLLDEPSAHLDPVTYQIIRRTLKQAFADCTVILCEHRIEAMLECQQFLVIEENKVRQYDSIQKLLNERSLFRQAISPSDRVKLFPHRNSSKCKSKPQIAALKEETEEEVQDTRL

The term EC50 denotes the midpoint of the concentration-response curve. The term Emax denotes the greatest response seen or fitted, relative to the assay's reference. `CCOC(=O)c1cnc([C@H]2C[C@@H](NC(=O)C3(c4ccc5c(c4)OC(F)(F)O5)CC3)c3ccccc3O2)s1` (stereo in doubt) [Example 135, ethyl rel-2-[(2R,4R)-4-({[1-(2,2-difluoro-1,3-benzodioxol-5-yl)cyclopropyl]carbonyl}amino)-3,4-dihydro-2H-chromen-2-yl]-1,3-thiazole-5-carboxylate] came in with an EC50 of 1510 nM and an Emax of 97%.
As to `CCOC(=O)c1csc([C@@H]2C[C@H](NC(=O)C3(c4ccc5c(c4)OC(F)(F)O5)CC3)c3ccccc3O2)n1` (stereo in doubt) [Example 140, ethyl rel-2-[(2S,4S)-4-({[1-(2,2-difluoro-1,3-benzodioxol-5-yl)cyclopropyl]carbonyl}amino)-3,4-dihydro-2H-chromen-2-yl]-1,3-thiazole-4-carboxylate], the response was half-maximal at 2280 nM (EC50) and the Emax was 53%.
In turn, `CCOC(=O)c1csc([C@H]2C[C@@H](NC(=O)C3(c4ccc5c(c4)OC(F)(F)O5)CC3)c3ccccc3O2)n1` (stereo in doubt) [Example 142, ethyl rel-2-[(2R,4R)-4-({[1-(2,2-difluoro-1,3-benzodioxol-5-yl)cyclopropyl]carbonyl}amino)-3,4-dihydro-2H-chromen-2-yl]-1,3-thiazole-4-carboxylate] had an EC50 of 1180 nM and an Emax of 87%.
`O=C(O)c1csc([C@@H]2C[C@H](NC(=O)C3(c4ccc5c(c4)OC(F)(F)O5)CC3)c3ccccc3O2)n1` (stereo in doubt) [Example 143, rel-2-[(2S,4S)-4-({[1-(2,2-difluoro-1,3-benzodioxol-5-yl)cyclopropyl]carbonyl}amino)-3,4-dihydro-2H-chromen-2-yl]-1,3-thiazole-4-carboxylic acid] registered an EC50 of 8500 nM and an Emax of 27%.
For `O=C(O)c1csc([C@H]2C[C@@H](NC(=O)C3(c4ccc5c(c4)OC(F)(F)O5)CC3)c3ccccc3O2)n1` (stereo in doubt) [Example 145, rel-2-[(2R,4R)-4-({[1-(2,2-difluoro-1,3-benzodioxol-5-yl)cyclopropyl]carbonyl}amino)-3,4-dihydro-2H-chromen-2-yl]-1,3-thiazole-4-carboxylic acid] the same measures were 2450 nM and 96%.
Taken in the same sequence, the figures for `CCOC(=O)c1csc([C@H]2C[C@@H](NC(=O)C3(c4ccc5c(c4)OC(F)(F)O5)CC3)c3ccc(OC)cc3O2)n1` (stereo in doubt) [Example 155, ethyl rel-2-[(2R,4R)-4-({[1-(2,2-difluoro-1,3-benzodioxol-5-yl)cyclopropyl]carbonyl}amino)-7-methoxy-3,4-dihydro-2H-chromen-2-yl]-1,3-thiazole-4-carboxylate] were 370 nM and 108%.
`COc1ccc2c(c1)O[C@@H](c1nc(C(=O)O)cs1)C[C@H]2NC(=O)C1(c2ccc3c(c2)OC(F)(F)O3)CC1` (stereo in doubt) [Example 156, rel-2-[(2R,4R)-4-({[1-(2,2-difluoro-1,3-benzodioxol-5-yl)cyclopropyl]carbonyl}amino)-7-methoxy-3,4-dihydro-2H-chromen-2-yl]-1,3-thiazole-4-carboxylic acid] displayed an EC50 of 1230 nM and an Emax of 112%.
`CCOC(=O)c1csc([C@@H]2C[C@H](NC(=O)C3(c4ccc5c(c4)OC(F)(F)O5)CC3)c3ccc(OC)cc3O2)n1` (stereo in doubt) [Example 157, ethyl rel-2-[(2S,4S)-4-({[1-(2,2-difluoro-1,3-benzodioxol-5-yl)cyclopropyl]carbonyl}amino)-7-methoxy-3,4-dihydro-2H-chromen-2-yl]-1,3-thiazole-4-carboxylate] gave an EC50 of 1520 nM and an Emax of 77%.
`COc1ccc2c(c1)O[C@H](c1nc(C(=O)O)cs1)C[C@@H]2NC(=O)C1(c2ccc3c(c2)OC(F)(F)O3)CC1` (stereo in doubt) [Example 158, rel-2-[(2S,4S)-4-({[1-(2,2-difluoro-1,3-benzodioxol-5-yl)cyclopropyl]carbonyl}amino)-7-methoxy-3,4-dihydro-2H-chromen-2-yl]-1,3-thiazole-4-carboxylic acid] displayed an EC50 of 6650 nM and an Emax of 101%.
Taken in the same sequence, the figures for `COC(=O)c1ccc([C@H]2C[C@H](NC(=O)C3(c4ccc5c(c4)OC(F)(F)O5)CC3)c3ccc(OC)cc3O2)nc1` (stereo in doubt) [Example 159, methyl rel-6-[(2R,4S)-4-({[1-(2,2-difluoro-1,3-benzodioxol-5-yl)cyclopropyl]carbonyl}amino)-7-methoxy-3,4-dihydro-2H-chromen-2-yl]pyridine-3-carboxylate] were 1360 nM and 92%.
`COC(=O)c1ccc([C@@H]2C[C@@H](NC(=O)C3(c4ccc5c(c4)OC(F)(F)O5)CC3)c3ccc(OC)cc3O2)nc1` (stereo in doubt) [Example 160, methyl rel-6-[(2S,4R)-4-({[1-(2,2-difluoro-1,3-benzodioxol-5-yl)cyclopropyl]carbonyl}amino)-7-methoxy-3,4-dihydro-2H-chromen-2-yl]pyridine-3-carboxylate] had an EC50 of 600 nM and an Emax of 104%.
For `COC(=O)c1ccc([C@@H]2C[C@H](NC(=O)C3(c4ccc5c(c4)OC(F)(F)O5)CC3)c3ccc(OC)cc3O2)nc1` (stereo in doubt) [Example 161, methyl rel-6-[(2S,4S)-4-({[1-(2,2-difluoro-1,3-benzodioxol-5-yl)cyclopropyl]carbonyl}amino)-7-methoxy-3,4-dihydro-2H-chromen-2-yl]pyridine-3-carboxylate] the same measures were 2260 nM and 82%.
Taken in the same sequence, the figures for `COC(=O)c1ccc([C@H]2C[C@@H](NC(=O)C3(c4ccc5c(c4)OC(F)(F)O5)CC3)c3ccc(OC)cc3O2)nc1` (stereo in doubt) [Example 162, methyl rel-6-[(2R,4R)-4-({[1-(2,2-difluoro-1,3-benzodioxol-5-yl)cyclopropyl]carbonyl}amino)-7-methoxy-3,4-dihydro-2H-chromen-2-yl]pyridine-3-carboxylate] were 170 nM and 105%.
Consider `COc1ccc2c(c1)O[C@@H](c1cccc(C(=O)O)c1)C[C@@H]2NC(=O)C1(c2ccc3c(c2)OC(F)(F)O3)CC1` [Example 2, 3-[(2R,4S)-4-({[1-(2,2-difluoro-1,3-benzodioxol-5-yl)cyclopropyl]carbonyl}amino)-7-methoxy-3,4-dihydro-2H-chromen-2-yl]benzoic acid], for which it took 2710 nM to reach a half-maximal effect (EC50) and the Emax is 122%.
Taken in the same sequence, the figures for `COc1ccc2c(c1)O[C@H](c1ccc(OC)c(OC)c1)C[C@@H]2NC(=O)C1(c2ccc3c(c2)OC(F)(F)O3)CC1` [Example 4, 1-(2,2-difluoro-1,3-benzodioxol-5-yl)-N-[(2S,4S)-2-(3,4-dimethoxyphenyl)-7-methoxy-3,4-dihydro-2H-chromen-4-yl]cyclopropanecarboxamide] were 1190 nM and 73%.
Taken in the same sequence, the figures for `COC(=O)c1cccc([C@H]2C[C@H](NC(=O)C3(c4ccc5c(c4)OC(F)(F)O5)CC3)c3ccc(OC)cc3O2)c1` [Example 5, methyl 3-[(2R,4S)-4-({[1-(2,2-difluoro-1,3-benzodioxol-5-yl)cyclopropyl]carbonyl}amino)-7-methoxy-3,4-dihydro-2H-chromen-2-yl]benzoate] were 2450 nM and 92%.
For the molecule `COC(=O)c1cccc([C@H]2C[C@@H](NC(=O)C3(c4ccc5c(c4)OC(F)(F)O5)CC3)c3ccc(OC)cc3O2)c1` [Example 6, methyl 3-[(2R,4R)-4-({[1-(2,2-difluoro-1,3-benzodioxol-5-yl)cyclopropyl]carbonyl}amino)-7-methoxy-3,4-dihydro-2H-chromen-2-yl]benzoate], the EC50 turned out to be 380 nM and the Emax came to 120%.
For `COC(=O)c1cccc([C@H]2C[C@H](NC(=O)C3(c4ccc5c(c4)OC(F)(F)O5)CC3)c3ccccc3O2)c1` [Example 7, methyl 3-[(2R,4S)-4-({[1-(2,2-difluoro-1,3-benzodioxol-5-yl)cyclopropyl]carbonyl}amino)-3,4-dihydro-2H-chromen-2-yl]benzoate] the same measures were 5840 nM and 58%.
`COC(=O)c1cccc([C@H]2C[C@@H](NC(=O)C3(c4ccc5c(c4)OC(F)(F)O5)CC3)c3ccccc3O2)c1` [Example 8, methyl 3-[(2R,4R)-4-({[1-(2,2-difluoro-1,3-benzodioxol-5-yl)cyclopropyl]carbonyl}amino)-3,4-dihydro-2H-chromen-2-yl]benzoate] registered an EC50 of 1750 nM and an Emax of 98%.
In turn, `O=C(O)c1cccc([C@H]2C[C@H](NC(=O)C3(c4ccc5c(c4)OC(F)(F)O5)CC3)c3ccccc3O2)c1` [Example 10, 3-[(2R,4S)-4-({[1-(2,2-difluoro-1,3-benzodioxol-5-yl)cyclopropyl]carbonyl}amino)-3,4-dihydro-2H-chromen-2-yl]benzoic acid] had an EC50 of 4100 nM and an Emax of 112%.
For `COC(=O)c1cccc([C@H]2C[C@@H](NC(=O)C3(c4ccc5c(c4)OC(F)(F)O5)CC3)c3cc(C)ccc3O2)c1` [Example 11, methyl 3-[(2R,4R)-4-({[1-(2,2-difluoro-1,3-benzodioxol-5-yl)cyclopropyl]carbonyl}amino)-6-methyl-3,4-dihydro-2H-chromen-2-yl]benzoate] the same measures were 910 nM and 102%.
On to `COC(=O)c1cccc([C@H]2C[C@H](NC(=O)C3(c4ccc5c(c4)OC(F)(F)O5)CC3)c3cc(C)ccc3O2)c1` [Example 12, methyl 3-[(2R,4S)-4-({[1-(2,2-difluoro-1,3-benzodioxol-5-yl)cyclopropyl]carbonyl}amino)-6-methyl-3,4-dihydro-2H-chromen-2-yl]benzoate], for which the EC50 amounted to 5470 nM and the Emax came out at 58%.
